pIC50: −log10 of the molar value. Where two headings read alike, the source gives them in different places.
How the values were obtained:
[1] = target: T1, JNK2 (Homo sapiens, UniProt P45984); assay: JNK enzyme activity assay, purified JNK2; assay type: biochemical; details: 10 μM, Phospho-c Jun (Ser 73) by western blot
T1 construct: purchased Thermo Fisher PV3620
Description: (§1) JNK activity was measured with JNK Activity Assay Kit (ab273417, Abcam). JNK activity assay was performed with purified JNK, JNK1 (PV3319, Thermo Fisher), JNK2 (PV3620, Thermo Fisher) JNK3(PV4563, Thermo Fisher). 0.3 μg of each JNK purified protein were incubated with c-Jun Protein/ATP in Kinase Assay Buffer for 1 hr followed by manufacturer's instruction with 10 μM small molecules. Catalysed substrate Phospho-c Jun (Ser 73) was detected by western blot analysis. Western blot analysis performed with JNK Activity Assay kit supplied anti-Phospho-cJun (Ser 73) Specific Antibody at 1:10,000 for overnight and Goat Anti-Rabbit HRP (ab205718, abeam) at 1:10,000 for 1 hr incubation as primary and secondary antibody.

[2] = MTT cell viability after one week steatosis (ranking of target molecules); assay type: cell-based, human; details: human, HepG2 cells (wild type); HepG2, 10 μM, one week steatosis induce media, MTT; Control 100.00
Description: (§2) HepG2 wild type cells were purchased from genome engineering company Synthego. Cells were maintained with Roswell Park Memorial Institute growth media, RPMI, 1640 (R2405, Sigma-Aldrich) and supplemented with 10% fetal bovine serum (FBS, F7524, Sigma-Aldrich), 1% penicillin-streptomycin (P/S, P4333, Sigma-Aldrich). Steatosis induction media was prepared as high glucose Dulbecco's Modified Eagle Media (DMEM, D0819, Sigma-Aldrich) with 10% FBS, 1% P/S media supplemented with 10 μg/ml insulin (I9278, Sigma-Aldrich), and 10 μM T0901317 (T2320, Sigma-Aldrich). HepG2 cells were seeded 6×10^4 cells per well for 96-well plate and 1×10^6 cells per well for 6-well plate. HepG2 cells were incubated with steatosis induce media (SM) for one week by 3 day+2 day+2 day with total three times media exchange.
(§3) HepG2 cells were seeded at 60,000 cells per well in 96 well plate. Using steatosis induce media, the cells were treated with 10 μM of target drugs for one week. The media was changed 3 times at day 0, day 3 and day 5. TAG assay was performed using MAK266-1KT SDS Triglyceride Quantification Colorimetric kit and cell viability analysis was performed using MTT assay.

[3] = test system: JNK protein; assay: Cellular thermal shift assay (CETSA), protein-ligand binding; design: species or system human; details: 10 μM, 60° C.; versus JNK-IN-5A
Description: HepG2 cells were trypsinized and calculated at 1×10^6 cells into 1.5 ml micro centrifuge tube with 100 μl cell culture media. Cells were incubated in a CO2 incubator at 37° C. for 1 hr with 10 μM of each target drug. Drug treated cells were heated at 60° C. for 3 min using a heat plate. Heated cells were lysed with Native lysis buffer (ab156035, Abcam). Thermal shifted JNK proteins were detected with western blot analysis using JNK1+2+3 antibody (Ab179461, Abcam) and band intensity was analysed with ImageJ program.

[4] = target: T2, JNK3 (Homo sapiens, UniProt P53779); assay: JNK enzyme activity assay, purified JNK3; assay type: biochemical; details: 10 μM; greatest inhibition was obtained for JNK3
T2 construct: purchased Thermo Fisher PV4563
Description: as §1

[5] = target: T3, JNK1 (Homo sapiens, UniProt P45983); assay: JNK enzyme activity assay, purified JNK1; assay type: biochemical; details: 10 μM, Phospho-c Jun (Ser 73) by western blot
T3 construct: purchased Thermo Fisher PV3319
Description: as §1

[6] = test system: HepG2 cells; assay: Triglyceride (TAG) measurement assay, one week steatosis model; assay type: cell-based, human; details: Homo sapiens
Description: as §2
HepG2 cells were seeded at 6×10^4 cells per well into 96 well plate and induced steatosis for one week with 10 μM of target drugs. After steatosis induction, cells were washed with 200 μl of phosphate buffered saline (PBS) and triglyceride contents was measured by Triglyceride Assay Kit—Quantification (ab65336, Abcam) following manufacturer's instruction. Optical density (O.D) values were detected with microplate reader at 570 nm (Hidex Sense Beta Plus).
as §3

[7] = test system: HepG2 cells; assay: Mitochondrial membrane potential assay (TMRE); assay type: cell-based, human; details: 10 μM, one day
Description: HepG2 cells were seeded into a 6-well plate at 400,000 cells per well. After treatment with the compounds at desired concentration and time, TMRE (ab113852, abcam), Autophagy (ab139484, abcam), ROS (ab113851, abcam), and Lipid peroxidation (ab243377, abcam) assay were performed according to manufacturer's instructions. Fluorescence images were taken using ZOE™ Fluorescent Cell Imager (Biorad) and ROI of fluorescence intensity was measured and calculated by Image J. For microplate reader florescence assay, 40,000 of HepG2 cells were seeded into a 96-well plate and triplicated. GFP (Ex480 nm, Em530 nm) and RFP (Ex549 nm, Em574 nm) were measured using a microplate reader (Hidex Sense Meta Plus).

[8] = test system: HepG2 cells; assay: MTT cell viability after one week steatosis (ranking of target molecules); assay type: cell-based, human
Description: as §2, §3

[9] = MTT cell viability / IC50 in growth media; assay type: cell-based, human; details: human, HepG2 cells; 10 μM, treatment for 2 days
Description: (§4) The cytotoxic effects of the synthesized drugs on the HepG2 cells were tested by MTT (Thiazolyl Blue Tetrazolium Bromide) method. HepG2 cells were seeded 2×10^4 cells per well in 96-well plate in 200 μL growth media. […] After the incubation period, 5 mg/ml MTT (M2128, Sigma-Aldrich) solution in PBS (10 μL) was added to each well. After 1 hr, the MTT solution and all media were removed from the wells. 100 μl of DMSO was added and mixed to dissolve the formazan crystals. Cell viability was analysed by measuring the absorbance of the dissolved formazan in a microplate reader at a wavelength of 570 nm with microplate reader (Hidex Sense Beta Plus).
(§5) HepG2 cells were maintained and used with RPMI 1640 (R2405, Sigma-Aldrich) supplemented with 10% fetal bovine serum (F7524, Sigma-Aldrich), 1% P/S (P4333, Sigma-Aldrich). 20,000 cells per well of HepG2 cells were seeded into a 96-well plate and triplicated for MTT assay and LDH assay. Cell viability was measured by MTT assay (M6494, ThermoFisher) and cytotoxicity was measured by LDH assay kit (ab65393, abcam) by following manufacturer's instructions. Optical density (O.D) was numerated using a microplate reader (Hidex Sense Meta Plus).

[10] = test system: HepG2 cells; assay: MTT cell viability / IC50 in growth media; assay type: cell-based, human; details: Homo sapiens, 48 h; HepG2, treatment for 2 days, 30 μM to 30 nM
Description: as §4, §5

[11] = test system: HepG2 cells; assay: FACs analysis with PI staining (cell cycle); assay type: cell-based, human; details: PI FACs, 10 μM, 2 days
Description: 400,000 HepG2 cells were seeded in a 6-well plated and treated with 10 μM of the compounds for 2 days. Cells were fixed with 70% ethanol and stained with 50 μg/ml PI. Prepared cells were analysed using BD FACS Canto II Flow Cytometry system at PE-A channel 10,000 cells per group. The data was histogram plotted with BD FACSDiva 9.0.

[12] = test system: HepG2 cells; assay: Invasion assay (transwell); assay type: cell-based, human; details: Homo sapiens, HepG2, 24 hr, read-out: invasiveness reduced by
Description: The effects of the treatment with the compounds on the invasion ability of HepG2 and Huh7 cells were determined by 8 μm pores transwell chamber (Corning™ 3464, USA).
(§6) Transwell membrane was coated with 100 μl collagen (Sigma C3867, USA) diluted with PBS to a concentration of 1 mg/ml. After overnight incubation at 4° C., the collagen solution was discarded and the membrane was washed with PBS. 100,000 cells in 200 μl serum free media together with the tested compounds were added into the upper well and 600 μl of 10% FBS supplemented growth media was added to the lower well as an invasive attractant in a 24-well plate. Cells were incubated at 37° C. in a CO2 incubator for one day. The cells were fixed with 3.7% formaldehyde for 30 minutes at room temperature and washed with PBS twice. The cells were stained with 1% crystal violet in PBS for 20 minutes and residual cells in inner membrane were swabbed gently with a cotton swab. Invaded cells located at the outer membrane were imaged by ZOE Fluorescent Cell Imager (Bio-Rad, USA) and counted by image. For wound healing assay, 100,000 cells per well were seeded into 24-well plates and grown until 95-100% confluent. Linear wound was created by using a 200 μl pipette tip. Image was recorded at the time point of day 0 until control group wound closure with 1 μM of compounds by ZOE Fluorescent Cell Imager (Bio-Rad, USA). Wound areas were measured using ImageJ software.

[13] = test system: JNK1/2/3; assay: Western blot, JNK1/2/3 P54 and p46 isoforms; assay type: cell-based, human; details: 10 μM, 2 days
Description: HepG2 cells were seeded into a 6-well plate at 400,000 cells per well. After treatment with 10 μM of JNK-IN-5A and its derivatives for two days, lysates were harvested with CelLytic M (C2978, Sigma-Aldrich). […] SDS PAGE were performed using Mini-PROTEAN® TGX™ Precast Gels (Bio-Rad) and transferred using Trans-Blot® Turbo™ Transfer System (Bio-Rad). […] ImageQuantTMLAS 500 (29-0050-63, GE) was used to detect protein bands.

[14] = test system: HepG2 cells; assay: Wound healing assay; assay type: cell-based; details: Homo sapiens, HepG2, 96 h, day 4, untreated 100% wound closure, read-out: wound healing delayed by
Description: as §6

[15] = 168 h, HepG2, 10 μM, one week steatosis induce media, Control 100.00, read-out: TAG (%)
[16] = HepG2, 168 h, ratio between TAG content and cell viability, Control 100.0, read-out: TAG/cell viability

T2 sequence (P53779 whole entry): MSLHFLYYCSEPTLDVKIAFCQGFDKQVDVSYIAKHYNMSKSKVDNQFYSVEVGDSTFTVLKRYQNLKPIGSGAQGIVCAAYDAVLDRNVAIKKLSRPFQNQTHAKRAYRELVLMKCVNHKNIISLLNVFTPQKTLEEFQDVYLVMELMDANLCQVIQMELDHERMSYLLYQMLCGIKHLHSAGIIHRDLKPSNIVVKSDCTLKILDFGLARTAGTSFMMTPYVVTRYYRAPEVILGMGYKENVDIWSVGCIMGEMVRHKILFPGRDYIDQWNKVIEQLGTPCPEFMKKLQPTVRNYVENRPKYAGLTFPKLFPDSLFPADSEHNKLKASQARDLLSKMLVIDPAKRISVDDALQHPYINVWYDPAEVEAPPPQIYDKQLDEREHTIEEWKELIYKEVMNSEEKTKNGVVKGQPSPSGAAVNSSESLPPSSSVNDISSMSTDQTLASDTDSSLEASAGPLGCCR
T1 sequence (P45984 whole entry): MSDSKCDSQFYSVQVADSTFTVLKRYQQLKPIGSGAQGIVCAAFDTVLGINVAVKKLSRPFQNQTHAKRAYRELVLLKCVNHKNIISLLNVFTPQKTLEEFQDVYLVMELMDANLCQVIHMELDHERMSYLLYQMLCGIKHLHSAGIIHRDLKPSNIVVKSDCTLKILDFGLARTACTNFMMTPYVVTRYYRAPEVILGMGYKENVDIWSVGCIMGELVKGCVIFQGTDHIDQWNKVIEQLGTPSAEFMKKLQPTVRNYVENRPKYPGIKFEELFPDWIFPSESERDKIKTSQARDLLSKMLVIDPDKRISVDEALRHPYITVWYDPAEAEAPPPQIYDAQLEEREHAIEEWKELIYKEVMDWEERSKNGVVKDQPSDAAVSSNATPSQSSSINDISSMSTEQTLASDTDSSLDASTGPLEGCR
T3 sequence (P45983 whole entry): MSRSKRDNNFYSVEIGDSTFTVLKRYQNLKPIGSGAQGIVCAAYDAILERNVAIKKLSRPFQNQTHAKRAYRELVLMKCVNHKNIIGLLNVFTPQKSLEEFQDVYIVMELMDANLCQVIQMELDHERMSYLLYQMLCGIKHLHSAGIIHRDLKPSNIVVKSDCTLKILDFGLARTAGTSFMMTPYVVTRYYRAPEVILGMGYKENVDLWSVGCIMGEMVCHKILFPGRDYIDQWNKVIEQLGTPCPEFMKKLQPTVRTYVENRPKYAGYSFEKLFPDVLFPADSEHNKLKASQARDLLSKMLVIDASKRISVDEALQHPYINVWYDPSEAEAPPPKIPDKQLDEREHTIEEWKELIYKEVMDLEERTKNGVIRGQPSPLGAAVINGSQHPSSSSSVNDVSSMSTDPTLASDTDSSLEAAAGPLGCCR

**Q.** Which results are given for `CN(C)C(=O)N1CCc2c(sc(NC(=O)c3cccc4ccccc34)c2C#N)C1` [PKL-A117]?
**A.** JNK2 activity [1]: inhibited; viability at 1 week, 10 µM [2]: 40.6%; binding to the JNK protein [3]: better binding; JNK3 activity [4]: inhibited; JNK1 activity [5]: inhibited; activity at 10 µM [6, 15]: 12.8%; activity at 10 µM [6, 16]: 31.4%

**Q.** Which results are given for `N#Cc1c(NC(=O)c2cccc3ccccc23)sc2c1CCN(C(=O)Nc1ccccc1Cl)C2` [PKL-A156]?
**A.** mitochondrial membrane potential [7]: significantly decreased; viability at 1 week, 10 µM [2]: 26.6%; cell viability of HepG2 [8]: exceptionally low cell viability; viability at 2 days, 10 µM [9]: 53.7%; pIC50 [10]: 4.80; Cell population G0/G1 [11]: 30.1; Cell population G2/M [11]: 60.8; Cell population S [11]: 2.3; inhibition at 1 µM [12]: 14%; JNK1/2/3 p46 expression [13]: not significantly altered; activity at 10 µM [6, 15]: 13.5%; activity at 10 µM [6, 16]: 50.8%; inhibition at 1 µM [14]: 26.2%

**Q.** Which JNK2 activity [1] does the source give for `COc1ccc(C(=O)N2CCc3c(sc(NC(=O)c4cccc5ccccc45)c3C#N)C2)cc1OC` [PKL-A132] here?
**A.** inhibited

**Q.** And the viability at 1 week, 10 µM [2]?
**A.** 40.3%

**Q.** And the “binding to the JNK protein” value [3]?
**A.** better binding

**Q.** And the JNK3 activity [4]?
**A.** inhibited

**Q.** And the JNK1 activity [5]?
**A.** inhibited

**Q.** What about the activity at 10 µM [6, 15] of the same compound?
**A.** 12.8%

**Q.** What about the activity at 10 µM [6, 16] of the same compound?
**A.** 31.9%

**Q.** Which mitochondrial membrane potential [7] does the source give for `N#Cc1c(NC(=O)c2cccc3ccccc23)sc2c1CCN(C(=O)Nc1ccccc1C(F)(F)F)C2` [PKL-A158] here?
**A.** significantly decreased

**Q.** And the viability at 1 week, 10 µM [2]?
**A.** 9.59%

**Q.** What about the “cell viability of HepG2” value [8] of the same compound?
**A.** exceptionally low cell viability

**Q.** What about the viability at 2 days, 10 µM [9] of the same compound?
**A.** 51.9%

**Q.** And the pIC50 [10]?
**A.** 5.12

**Q.** What about the “Cell population G0/G1” value [11] of the same compound?
**A.** 31.6

**Q.** And the “Cell population G2/M” value [11]?
**A.** 60.3

**Q.** What about the “Cell population S” value [11] of the same compound?
**A.** 3.5

**Q.** What about the inhibition at 1 µM [12] of the same compound?
**A.** 20.8%

**Q.** And the “JNK1/2/3 p46 expression” value [13]?
**A.** not significantly altered

**Q.** And the activity at 10 µM [6, 15]?
**A.** 8.35%

**Q.** What about the inhibition at 1 µM [14] of the same compound?
**A.** 39.5%

**Q.** For `N#Cc1c(NC(=O)c2cccc3ccccc23)sc2c1CCN(C(=O)Nc1ccccc1F)C2` [PKL-A119], which JNK2 activity [1] is on record?
**A.** inhibited

**Q.** And the viability at 1 week, 10 µM [2]?
**A.** 40.1%

**Q.** What about the “binding to the JNK protein” value [3] of the same compound?
**A.** better binding

**Q.** And the JNK3 activity [4]?
**A.** inhibited

**Q.** What about the JNK1 activity [5] of the same compound?
**A.** inhibited

**Q.** And the activity at 10 µM [6, 15]?
**A.** 12.5%

**Q.** What about the activity at 10 µM [6, 16] of the same compound?
**A.** 31.2%

**Q.** Which JNK2 activity [1] does the source give for `CC(C)(C)OC(=O)N1CCc2c(sc(NC(=O)c3cccc4ccccc34)c2C#N)C1` [PKL-A131] here?
**A.** inhibited

**Q.** And the viability at 1 week, 10 µM [2]?
**A.** 44.8%

**Q.** And the “binding to the JNK protein” value [3]?
**A.** better binding

**Q.** And the JNK3 activity [4]?
**A.** inhibited

**Q.** What about the JNK1 activity [5] of the same compound?
**A.** inhibited

**Q.** And the activity at 10 µM [6, 15]?
**A.** 13.1%

**Q.** What about the activity at 10 µM [6, 16] of the same compound?
**A.** 29.3%

— US20260234159A1, “SMALL MOLECULE TREATMENT OF FATTY LIVER DISEASE AND HCC” (SCANDIEDGE THERAPEUTICS AB, priority 2023, published 2026)
